Test: Water solubility of selodenoson
Format: physicochemical

- solubility in water (water): soluble in water
SMILES: CCNC(=O)[C@H]1O[C@@H](n2cnc3c(NC4CCCC4)ncnc32)[C@H](O)[C@@H]1O [selodenoson, N^6-cyclopentyl-5′-(N-ethyl)carboxamidoadenosine]
- solubility in water under acidic conditions (water under acidic conditions): highly soluble in water under acidic conditions
